The target of test [1] is baculovirus-expressed JAK2 kinase (Homo sapiens, UniProt O60674). Briefly: biochemical. Conditions: 0.2 μM ATP; read-out: JAK2 Potency. The gist of the method: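 IC50 derived by variable-slope sigmoidal fit of percent inhibition against log compound concentration. Baculovirus-expressed JAK2 (15 ng/mL) phosphorylated a plate-bound biotinylated 15-mer peptide for 20 min at room temperature; detection by time-resolved fluorescence.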

For test [2], the target named is baculovirus-expressed ALK (Homo sapiens, UniProt Q9UM73). Briefly: ALK kinase inhibition, TRF/ELISA. Conditions: read-out: ALK Potency. The class given is biochemical. The gist of the method: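 Eu-PT66 anti-phosphotyrosine TRF read-out measured phosphorylation of plate-bound GST-PLC-γ (coated at 10 μg/mL). The phosphorylation was driven by 30 ng/mL ALK for 15 minutes at 37° C.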

This note sets out measurements from patent US9238656B2, “Imidazo[4,5-b]pyridine derivatives as ALK and JAK modulators for the treatment of proliferative disorders” (priority 2012, dated 2016).

Where only a bound is given, the exact number is not on record here.

baculovirus-expressed JAK2 kinase, sequence (O60674 whole entry): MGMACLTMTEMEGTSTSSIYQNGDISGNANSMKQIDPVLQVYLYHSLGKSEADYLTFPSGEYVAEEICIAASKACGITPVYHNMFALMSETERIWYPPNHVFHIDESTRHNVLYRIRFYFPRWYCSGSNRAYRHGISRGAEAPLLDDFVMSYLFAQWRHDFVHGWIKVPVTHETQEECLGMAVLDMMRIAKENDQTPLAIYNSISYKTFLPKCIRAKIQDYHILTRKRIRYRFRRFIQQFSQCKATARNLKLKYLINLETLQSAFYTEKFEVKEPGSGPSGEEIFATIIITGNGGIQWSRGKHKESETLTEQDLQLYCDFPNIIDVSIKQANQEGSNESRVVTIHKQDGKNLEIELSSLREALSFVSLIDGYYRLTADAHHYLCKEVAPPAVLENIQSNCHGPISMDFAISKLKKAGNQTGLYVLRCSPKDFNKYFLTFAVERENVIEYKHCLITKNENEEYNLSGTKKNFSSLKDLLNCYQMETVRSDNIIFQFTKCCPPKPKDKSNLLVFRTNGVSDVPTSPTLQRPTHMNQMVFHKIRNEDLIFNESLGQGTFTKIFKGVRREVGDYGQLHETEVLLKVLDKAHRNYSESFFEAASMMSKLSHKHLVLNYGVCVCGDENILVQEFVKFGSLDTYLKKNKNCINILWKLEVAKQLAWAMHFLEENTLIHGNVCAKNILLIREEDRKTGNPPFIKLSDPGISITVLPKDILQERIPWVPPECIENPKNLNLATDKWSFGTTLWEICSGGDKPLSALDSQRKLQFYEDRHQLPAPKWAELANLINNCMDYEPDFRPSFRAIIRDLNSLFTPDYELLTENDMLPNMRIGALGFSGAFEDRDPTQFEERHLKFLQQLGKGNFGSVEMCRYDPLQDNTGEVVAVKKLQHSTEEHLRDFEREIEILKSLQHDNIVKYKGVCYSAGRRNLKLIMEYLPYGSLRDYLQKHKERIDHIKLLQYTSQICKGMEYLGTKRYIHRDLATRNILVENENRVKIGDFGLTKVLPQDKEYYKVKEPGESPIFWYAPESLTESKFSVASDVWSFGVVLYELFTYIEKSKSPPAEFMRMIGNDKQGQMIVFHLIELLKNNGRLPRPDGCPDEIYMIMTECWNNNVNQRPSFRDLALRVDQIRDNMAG
baculovirus-expressed ALK, sequence (Q9UM73 19-1620): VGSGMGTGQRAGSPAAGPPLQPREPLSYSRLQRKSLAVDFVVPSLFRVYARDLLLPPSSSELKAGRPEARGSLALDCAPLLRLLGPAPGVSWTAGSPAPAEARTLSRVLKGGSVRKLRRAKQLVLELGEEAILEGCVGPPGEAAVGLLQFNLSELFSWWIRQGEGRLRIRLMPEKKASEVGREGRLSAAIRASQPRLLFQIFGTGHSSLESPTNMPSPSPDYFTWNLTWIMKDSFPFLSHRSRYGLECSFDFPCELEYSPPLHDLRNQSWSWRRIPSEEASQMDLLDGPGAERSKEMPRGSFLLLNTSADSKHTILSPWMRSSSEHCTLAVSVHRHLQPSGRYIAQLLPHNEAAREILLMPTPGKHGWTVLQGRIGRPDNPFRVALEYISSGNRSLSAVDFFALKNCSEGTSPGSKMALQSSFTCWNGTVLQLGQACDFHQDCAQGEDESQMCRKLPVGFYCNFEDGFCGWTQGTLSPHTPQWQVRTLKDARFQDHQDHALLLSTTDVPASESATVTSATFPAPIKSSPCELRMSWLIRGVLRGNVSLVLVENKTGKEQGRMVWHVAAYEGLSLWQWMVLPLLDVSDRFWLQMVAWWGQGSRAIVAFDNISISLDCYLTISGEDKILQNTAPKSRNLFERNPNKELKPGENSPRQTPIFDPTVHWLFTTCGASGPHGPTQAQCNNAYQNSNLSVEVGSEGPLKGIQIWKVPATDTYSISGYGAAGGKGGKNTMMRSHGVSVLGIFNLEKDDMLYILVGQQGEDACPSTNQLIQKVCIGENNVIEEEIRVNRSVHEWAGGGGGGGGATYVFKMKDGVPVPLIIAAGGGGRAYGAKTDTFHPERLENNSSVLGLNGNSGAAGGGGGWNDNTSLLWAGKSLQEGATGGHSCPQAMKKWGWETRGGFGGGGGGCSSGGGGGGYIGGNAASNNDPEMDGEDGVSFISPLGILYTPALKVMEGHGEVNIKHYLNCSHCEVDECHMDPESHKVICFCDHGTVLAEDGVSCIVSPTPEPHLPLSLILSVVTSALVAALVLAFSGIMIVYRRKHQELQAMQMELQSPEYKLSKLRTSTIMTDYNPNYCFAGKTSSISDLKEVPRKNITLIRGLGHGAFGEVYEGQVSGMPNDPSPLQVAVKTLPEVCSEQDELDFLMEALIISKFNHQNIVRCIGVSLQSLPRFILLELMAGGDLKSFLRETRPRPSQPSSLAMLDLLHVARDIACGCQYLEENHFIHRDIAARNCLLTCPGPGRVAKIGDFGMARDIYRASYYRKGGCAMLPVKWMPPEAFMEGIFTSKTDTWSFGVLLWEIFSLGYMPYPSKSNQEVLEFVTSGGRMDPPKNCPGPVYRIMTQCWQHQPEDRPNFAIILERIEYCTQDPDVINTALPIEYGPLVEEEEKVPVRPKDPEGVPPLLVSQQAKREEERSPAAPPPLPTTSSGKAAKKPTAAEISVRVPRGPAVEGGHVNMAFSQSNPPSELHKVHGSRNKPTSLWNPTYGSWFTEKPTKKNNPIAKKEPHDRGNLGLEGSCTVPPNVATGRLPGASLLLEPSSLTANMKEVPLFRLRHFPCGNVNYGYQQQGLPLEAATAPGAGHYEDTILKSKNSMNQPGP

Regarding `Cc1nn(C)c(C)c1-c1nc2c(N[C@H]3[C@@H](C(N)=O)[C@@H]4C=C[C@H]3C4)c(Cl)cnc2[nH]1` [Compound CLI, (1S,2S,3R,4R)-3-[6-Chloro-2-(1,3,5-trimethyl-1H-pyrazol-4-yl)-3H-imidazo[4,5-b]pyridin-7-ylamino]-bicyclo[2.2.1]hept-5-ene-2-carboxylic acid amide], the IC50 in test [1] and in test [2] was below 100 nM each time.

`CN(C)c1cccc(-c2nc3c(N[C@H]4[C@@H](C(N)=O)[C@@H]5C=C[C@H]4C5)c(Cl)cnc3[nH]2)c1` [Compound XII, (1S,2S,3R,4R)-3-[6-Chloro-2-(3-dimethylamino-phenyl)-3H-imidazo[4,5-b]pyridin-7-ylamino]-bicyclo[2.2.1]hept-5-ene-2-carboxylic acid amide]: the IC50 in test [1] is below 100 nM; in test [2] it was 100 to 1000 nM.

In the case of `Cn1cc(-c2nc3c(N[C@H]4[C@@H](C(N)=O)[C@@H]5CC[C@H]4O5)c(Cl)cnc3[nH]2)cn1` [Compound CCV, (1S,2R,3S,4R)-3-(6-chloro-2-(1-methyl-1H-pyrazol-4-yl)-3H-imidazo[4,5-b]pyridin-7-ylamino)-7-oxabicyclo[2.2.1]heptane-2-carboxamide], the IC50 in test [1] is 100 to 1000 nM; in test [2], above 10000 nM.

As for `COc1cc(OC(F)(F)F)ccc1-c1nc2c(N[C@H]3[C@@H](C(N)=O)[C@@H]4C=C[C@H]3C4)c(Cl)cnc2[nH]1` [Compound XVIII, (1S,2S,3R,4R)-3-[6-Chloro-2-(2-methoxy-4-trifluoromethoxy-phenyl)-3H-imidazo[4,5-b]pyridine-7-ylamino]-bicyclo[2.2.1]hept-5-ene-2-carboxylic acid amide], the IC50 in test [1] is 100 to 1000 nM; in test [2], below 100 nM.

Turning to `CC12CCC(Nc3c(Cl)cnc4[nH]c(-c5ccc(N6CCOCC6)cc5)nc34)(CC1O)C2(C)C` (stereo not shown) [Compound CCI, 4-(6-chloro-2-(4-morpholinophenyl)-3H-imidazo[4,5-b]pyridin-7-ylamino)-1,7,7-trimethylbicyclo[2.2.1]heptan-2-ol], the IC50 is below 100 nM in test [1] and above 10000 nM in test [2].

For the compound `NC(=O)[C@@H]1[C@H](Nc2c(Br)cnc3[nH]c(-c4ccc(N5CCOCC5)c(Cl)c4)nc23)[C@H]2C=C[C@@H]1C2` [Compound CXXXV, (1S,2S,3R,4R)-3-[6-Bromo-2-(3-chloro-4-morpholin-4-yl-phenyl)-3H-imidazo[4,5-b]pyridin-7-ylamino]-bicyclo[2.2.1]hept-5-ene-2-carboxylic acid amide], the IC50 in test [1] is below 100 nM; in test [2], 100 to 1000 nM.

Turning to `NC(=O)[C@@H]1[C@H](Nc2c(Cl)cnc3[nH]c(-c4cccc(F)c4)nc23)[C@H]2C=C[C@@H]1C2` [Compound CXXVIII], the values for the IC50 in test [1] and in test [2] were below 100 nM and 100 to 1000 nM, respectively.

With `NC(=O)[C@@H]1[C@H](Nc2c(Br)cnc3[nH]c(-c4sc(N5CCOCC5)nc4Cl)nc23)[C@H]2C=C[C@@H]1C2` [Compound CLXI, (1S,2S,3R,4R)-3-[6-Bromo-2-(4-chloro-2-morpholin-4-yl-thiazol-5-yl)-3H-imidazo[4,5-b]pyridin-7-ylamino]-bicyclo[2.2.1]hept-5-ene-2-carboxylic acid amide], the IC50 in test [1] and in test [2] was below 100 nM throughout.

In the case of `NC(=O)[C@@H]1[C@H](Nc2c(Br)cnc3[nH]c(-c4ccc(C(F)(F)F)nc4)nc23)[C@H]2C=C[C@@H]1C2` [Compound CXXXIX, (1S,2S,3R,4R)-3-[6-Bromo-2-(6-trifluoromethyl-pyridin-3-yl)-3H-imidazo[4,5-b]pyridin-7-ylamino]-bicyclo[2.2.1]hept-5-ene-2-carboxylic acid amide], the values for the IC50 in test [1] and in test [2] were below 100 nM and 1000 to 10000 nM, respectively.

On to `NC(=O)[C@@H]1[C@H](Nc2c(Cl)cnc3[nH]c(-c4cn5c(n4)CCCC5)nc23)[C@H]2C=C[C@@H]1C2` [Compound CCXIII, (1S,2S,3R,4R)-3-(6-chloro-2-(5,6,7,8-tetrahydroimidazo[1,2-a]pyridin-2-yl)-3H-imidazo[4,5-b]pyridin-7-ylamino)bicyclo[2.2.1]hept-5-ene-2-carboxamide], for which the IC50 in test [1] was below 100 nM; in test [2], 100 to 1000 nM.

`O=C(NC1CC1)[C@@H]1[C@H](Nc2c(Cl)cnc3[nH]c(-c4sc(N5CCOCC5)nc4Cl)nc23)[C@H]2C=C[C@@H]1C2` [Compound CLXXIV, (1S,2S,3R,4R)-3-[6-Chloro-2-(4-chloro-2-morpholin-4-yl-thiazol-5-yl)-3H-imidazo[4,5-b]pyridin-7-ylamino]-bicyclo[2.2.1]hept-5-ene-2-carboxylic acid cyclopropylamide]: the IC50 was 100 to 1000 nM in test [1] and below 100 nM in test [2].

`COc1cc(CN2CC[C@@H](O)C2)ccc1-c1nc2c(N[C@H]3[C@@H](C(N)=O)[C@@H]4C=C[C@H]3C4)c(Cl)cnc2[nH]1` [Compound XLVII, (1S,2S,3R,4R)-3-(6-Chloro-2-[4-((R)-3-hydroxy-pyrrolidin-1-ylmethyl)-2-methoxyphenyl]-3H-imidazo[4,5-b]pyridine-7-ylamino)-bicyclo[2.2.1]hept-5-ene-2-carboxylic acid amide]: the IC50 in test [1] and in test [2] was below 100 nM throughout.

As for `CC(C)NC(=O)[C@@H]1[C@H](Nc2c(Cl)cnc3[nH]c(-c4cnn(C)c4)nc23)[C@H]2C=C[C@@H]1C2` [Compound CLXXXVII], the IC50 in test [1] and in test [2] was 100 to 1000 nM throughout.

Take `COc1cc(N2CCOCC2)ccc1-c1nc2c(NC34CCC(C)(C(O)C3)C4(C)C)c(Cl)cnc2[nH]1` (stereo not shown) [Compound CCIII, 4-(6-chloro-2-(2-methoxy-4-morpholinophenyl)-3H-imidazo[4,5-b]pyridin-7-ylamino)-1,7,7-trimethylbicyclo[2.2.1]heptan-2-ol]: the IC50 in test [1] and in test [2] was 100 to 1000 nM each time.

Take `O=C(NC1CC1)[C@@H]1[C@H](Nc2c(Cl)cnc3[nH]c(-c4sc(N5CC[C@@H](O)C5)nc4Cl)nc23)[C@H]2C=C[C@@H]1C2` [Compound CLXXIII, (1S,2S,3R,4R)-3-[6-Chloro-2-[4-chloro-2-((R)-3-hydroxy-pyrrolidin-1-yl)-thiazol-5-yl]-3H-imidazo[4,5-b]pyridin-7-ylamino]-bicyclo[2.2.1]hept-5-ene-2-carboxylic acid cyclopropylamide]: the results for the IC50 in test [1] and in test [2] were 100 to 1000 nM and below 100 nM, respectively.

For the compound `COc1cc(N2CCOCC2)ccc1-c1nc2c(NC34CCC(C)(C(=O)C3)C4(C)C)c(Cl)cnc2[nH]1` (stereo not shown) [Compound CC, 4-(6-chloro-2-(2-methoxy-4-morpholinophenyl)-3H-imidazo[4,5-b]pyridin-7-ylamino)-1,7,7-trimethylbicyclo[2.2.1]heptan-2-one], the IC50 in test [1] and in test [2] was 100 to 1000 nM each time.

On to `N#Cc1ccc(-c2nc3c(N[C@H]4[C@@H](C(N)=O)[C@@H]5C=C[C@H]4C5)c(Cl)cnc3[nH]2)cc1` [Compound CXLV, (1S,2S,3R,4R)-3-[6-Chloro-2-(4-cyano-phenyl)-3H-imidazo[4,5-b]pyridin-7-ylamino]-bicyclo[2.2.1]hept-5-ene-2-carboxylic acid amide], for which the results for the IC50 in test [1] and in test [2] were below 100 nM and 100 to 1000 nM, respectively.

In the case of `NC(=O)[C@@H]1[C@H](Nc2c(Br)cnc3[nH]c(-c4cccc(Cl)c4)nc23)[C@H]2C=C[C@@H]1C2` [Compound CXLII, (1S,2S,3R,4R)-3-[6-Bromo-2-(3-chloro-phenyl)-3H-imidazo[4,5-b]pyridin-7-ylamino]-bicyclo[2.2.1]hept-5-ene-2-carboxylic acid amide], the values for the IC50 in test [1] and in test [2] were below 100 nM and 100 to 1000 nM, respectively.

Turning to `CN(C)CCOc1cccc(-c2nc3c(N[C@H]4[C@@H](C(N)=O)[C@@H]5C=C[C@H]4C5)c(Cl)cnc3[nH]2)c1` [Compound CCXLVII, (1S,2S,3R,4R)-3-(6-chloro-2-(3-(2-(dimethylamino)ethoxy)phenyl)-3H-imidazo[4,5-b]234yridine-7-ylamino)pyridin[2.2.1]hept-5-ene-2-carboxamide], the IC50 in test [1] and in test [2] was below 100 nM in each case.

Turning to `COC[C@H](O)CN1CCC(n2cc(-c3nc4c(N[C@H]5[C@@H](C(N)=O)[C@@H]6C=C[C@H]5C6)c(Cl)cnc4[nH]3)cn2)CC1` [Compound LX, (1S,2S,3R,4R)-3-(6-Chloro-2-{1-[1-((R)-2-hydroxy-3-methoxy-propyl)-piperidin-4-yl]-1H-pyrazol-4-yl}-3H-imidazo[4,5-b]pyridine-7-ylamino)-bicyclo[2.2.1]hept-5-ene-2-carboxylic acid amide], the IC50 in test [1] and in test [2] was below 100 nM throughout.

With `CC(C)NC(=O)[C@@H]1[C@H](Nc2c(Cl)cnc3[nH]c(-c4sc(N5CCCC5)nc4Cl)nc23)[C@H]2C=C[C@@H]1C2` [Compound CLXV, (1S,2S,3R,4R)-3-[6-Chloro-2-(4-chloro-2-pyrrolidin-1-yl-thiazol-5-yl)-3H-imidazo[4,5-b]pyridin-7-ylamino]-bicyclo[2.2.1]hept-5-ene-2-carboxylic acid isopropylamide], the results for the IC50 in test [1] and in test [2] were 1000 to 10000 nM and 100 to 1000 nM, respectively.

In the case of `COc1cc(CN2CCOCC2)ccc1-c1nc2c(N[C@H]3[C@@H](CO)[C@@H]4C=C[C@H]3C4)c(Cl)cnc2[nH]1` [Compound LII, {(diexo)-3-[6-Chloro-2-(2-methoxy-4-morpholin-4-ylmethylphenyl)-3H-imidazo[4,5-b]pyridine-7-ylamino]-bicyclo[2.2.1]hept-5-en-2-yl}-methanol], the results for the IC50 in test [1] and in test [2] were 100 to 1000 nM and below 100 nM, respectively.

Regarding `CC(C)NC(=O)[C@@H]1[C@H](Nc2c(Cl)cnc3[nH]c(-c4sc(N5CC[C@@H](O)C5)nc4Cl)nc23)[C@H]2C=C[C@@H]1C2` [Compound CLXIX, (1S,2S,3R,4R)-3-{6-Chloro-2-[4-chloro-2-((R)-3-hydroxy-pyrrolidin-1-yl)-thiazol-5-yl]-1H-imidazo[4,5-b]pyridin-7-ylamino}-bicyclo[2.2.1]hept-5-ene-2-carboxylic acid isopropylamide], the IC50 lay within 1000 to 10000 nM in test [1] and 100 to 1000 nM in test [2].
